# Data as given in patent US20060069132A1, “Azolecarboxamide herbicides” (priority 2004, published 2006).
# Experiments:
# pigweed = assay: Test C pre-/postemergence herbicide test; format: in vivo, Amaranthus retroflexus
# Procedure, shortened: (§1)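 Pre/post spray; non-phytotoxic solvent + surfactant. Post-timing 1–4 leaves, 2–18 cm. Read-out: visual % control vs untreated, day 12–14, greenhouse.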
# large crabgrass = assay: Test C pre-/postemergence herbicide test; format: in vivo, Digitaria sanguinalis
# Procedure, shortened: as §1
# soybean = assay: Test C pre-/postemergence herbicide test; format: in vivo, Glycine max
# Procedure, shortened: as §1
# common ragweed = assay: Test C pre-/postemergence herbicide test; format: in vivo, Ambrosia elatior; design: key to Plant response rating, Ragweed: 0 = no effect, 100 = complete control
# Procedure, shortened: as §1
# ducksalad = assay: Test C flooded paddy test; format: in vivo, Heteranthera limosa; conditions: for Plant response rating, Ducksalad: 500 g ai/ha, visual rating after 12 to 14 days
# giant foxtail = assay: Test C pre-/postemergence herbicide test; format: in vivo, Setaria faberi
# Procedure, shortened: as §1
# barnyardgrass = assay: Test C flooded paddy test; format: in vivo, Echinochloa crus-galli; conditions: for Plant response rating, Barnyardgrass: 500 g ai/ha, visual rating after 12 to 14 days
# Procedure, shortened: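 Scoring by eye, 12–14 days post-treatment, greenhouse-held plants vs. controls; 0 no effect, 100 complete control. Sprayed at 1–4 leaves (2–18 cm); paddy barnyardgrass at 2 leaves, flooded.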
# yellow nutsedge = assay: Test C pre-/postemergence herbicide test; format: in vivo, Cyperus esculentus
# Procedure, shortened: as §1
# velvetleaf = assay: Test C pre-/postemergence herbicide test; format: in vivo, Abutilon theophrasti
# Procedure, shortened: as §1
# goosegrass = assay: Test C pre-/postemergence herbicide test; format: in vivo, Eleusine indica
# Procedure, shortened: as §1
# [1] = 62 g ai/ha, preemergence, scale 0 to 100
# [2] = 125 g ai/ha, scale 0 (no effect) to 100 (complete control), visual, 12 to 14 days, preemergence
# [3] = Preemergence, 500 g ai/ha, scale 0 to 100, 0 no effect, 100 complete control
# [4] = 250 g ai/ha, scale 0 to 100 (0 no effect, 100 complete control), visual, 12 to 14 days, preemergence
# [5] = 62 g ai/ha, scale 0 to 100 (0 no effect, 100 complete control)
# [6] = 125 g ai/ha, scale 0 to 100 (0 no effect, 100 complete control)
# [7] = 250 g ai/ha, scale of 0 to 100, 0 is no effect, 100 is complete control
# [8] = scale 0 to 100 (0 no effect, 100 complete control)
# [9] = 125 g ai/ha, scale of 0 to 100, 0 is no effect, 100 is complete control
# [10] = Postemergence, 250 g ai/ha, scale 0 to 100, 0 no effect, 100 complete control
# [11] = postemergence, 125 g ai/ha, scale 0 to 100
# [12] = postemergence, 62 g ai/ha, scale 0 to 100
# [13] = 250 g ai/ha, scale 0-100, preemergence
# [14] = 500 g ai/ha, scale 0 to 100 (0 no effect, 100 complete control), visual, 12 to 14 days, preemergence
structure (smiles),measurement,setting,value
CCNC(=O)c1ccnc(NC(=O)c2cc(C(C)(C)C)nn2CC)c1 [Compound 152],"Plant response rating, Pigweed",pigweed; [1],85
same,"Plant response rating, Pigweed",pigweed; [2],100
same,Pigweed plant response rating,pigweed; [3],100
same,"Plant response rating, Crabgrass, Large",large crabgrass; [1],100
same,"Plant response rating, Crabgrass, Large",large crabgrass; [2],100
same,"Plant response rating, Crabgrass, Large",large crabgrass; [4],100
same,"Crabgrass, Large plant response rating",large crabgrass; [3],100
same,"Plant response rating, Soybean",soybean; [1],0
same,"Plant response rating, Soybean",soybean; [2],10
same,Soybean plant response rating,soybean; [3],100
same,"Plant response rating, Ragweed",common ragweed; [1],85
same,"Plant response rating, Ragweed",common ragweed; [2],85
same,Ragweed plant response rating,common ragweed; [3],100
same,Ducksalad plant response rating,ducksalad; [5],85
same,Ducksalad plant response rating,ducksalad; [6],85
same,Ducksalad plant response rating,ducksalad; [7],85
same,"Plant response rating, Ducksalad",ducksalad; [8],85
same,"Plant response rating, Foxtail, Giant",giant foxtail; [1],70
same,"Plant response rating, Foxtail, Giant",giant foxtail; [2],100
same,"Plant response rating, Foxtail, Giant",giant foxtail; [4],100
same,"Foxtail, Giant plant response rating",giant foxtail; [3],100
same,Barnyardgrass plant response rating,barnyardgrass; [5],40
same,Barnyardgrass plant response rating,barnyardgrass; [9],75
same,Barnyardgrass plant response rating,barnyardgrass; [7],75
same,"Plant response rating, Barnyardgrass",barnyardgrass; [8],85
same,"Plant response rating, Nutsedge, Yellow",yellow nutsedge; [1],10
same,"Plant response rating, Nutsedge, Yellow",yellow nutsedge; [2],30
same,"Nutsedge, Yellow plant response rating",yellow nutsedge; [3],70
same,"Plant response rating, Velvetleaf",velvetleaf; [1],0
same,"Plant response rating, Velvetleaf",velvetleaf; [2],100
same,Velvetleaf plant response rating,velvetleaf; [3],100
same,"Plant response rating, Goosegrass",goosegrass; [1],80
same,"Plant response rating, Goosegrass",goosegrass; [2],100
same,Goosegrass plant response rating,goosegrass; [3],100
CCn1nc(C(C)(C)C)cc1C(=O)Nc1cccc(C(=O)OC)c1 [Compound 81],"Plant response rating, Pigweed",pigweed; [10],40
same,"Plant response rating, Pigweed",pigweed; [11],10
same,"Plant response rating, Pigweed",pigweed; [12],5
same,"Plant response rating, Crabgrass, Large",large crabgrass; [10],30
same,"Plant response rating, Crabgrass, Large",large crabgrass; [11],10
same,"Plant response rating, Crabgrass, Large",large crabgrass; [12],5
same,"Plant response rating, Soybean",soybean; [10],30
same,"Plant response rating, Soybean",soybean; [11],30
same,"Plant response rating, Soybean",soybean; [12],10
same,"Plant response rating, Ragweed",common ragweed; [10],60
same,"Plant response rating, Ragweed",common ragweed; [11],60
same,"Plant response rating, Ragweed",common ragweed; [12],40
same,Ducksalad plant response rating,ducksalad; [5],0
same,Ducksalad plant response rating,ducksalad; [9],0
same,Ducksalad plant response rating,ducksalad; [7],20
same,"Plant response rating, Ducksalad",ducksalad; [8],20
same,"Plant response rating, Foxtail, Giant",giant foxtail; [10],20
same,"Plant response rating, Foxtail, Giant",giant foxtail; [11],10
same,"Plant response rating, Foxtail, Giant",giant foxtail; [12],10
same,Barnyardgrass plant response rating,barnyardgrass; [5],0
same,Barnyardgrass plant response rating,barnyardgrass; [9],0
same,Barnyardgrass plant response rating,barnyardgrass; [7],0
same,"Plant response rating, Barnyardgrass",barnyardgrass; [8],30
same,"Plant response rating, Nutsedge, Yellow",yellow nutsedge; [10],0
same,"Plant response rating, Nutsedge, Yellow",yellow nutsedge; [11],0
same,"Plant response rating, Nutsedge, Yellow",yellow nutsedge; [12],0
same,"Plant response rating, Velvetleaf",velvetleaf; [10],60
same,"Plant response rating, Velvetleaf",velvetleaf; [11],55
same,"Plant response rating, Velvetleaf",velvetleaf; [12],55
same,"Plant response rating, Goosegrass",goosegrass; [10],10
same,"Plant response rating, Goosegrass",goosegrass; [11],5
same,"Plant response rating, Goosegrass",goosegrass; [12],0
CCNC(=O)c1cccc(NC(=O)c2nn(C(C)(C)CC)nc2CC)c1 [Compound 376],"Plant response rating, Pigweed",pigweed; [1],100
same,"Plant response rating (0 = no effect, 100 = complete control), Pigweed","pigweed; 125 g ai/ha, preemergence",100
same,"Plant response rating, Pigweed",pigweed; [13],100
same,"Plant response rating, Pigweed",pigweed; [14],100
same,"Plant response rating, Crabgrass, Large",large crabgrass; [1],80
same,"Plant response rating (0 = no effect, 100 = complete control), Crabgrass, Large","large crabgrass; 125 g ai/ha, preemergence",100
same,"Plant response rating, Crabgrass, Large",large crabgrass; [13],100
same,"Plant response rating, Crabgrass, Large",large crabgrass; [14],100
same,"Plant response rating, Soybean",soybean; [1],0
same,"Plant response rating (0 = no effect, 100 = complete control), Soybean","soybean; 125 g ai/ha, preemergence",10
same,"Plant response rating, Soybean",soybean; [13],10
same,"Plant response rating, Soybean",soybean; [14],10
same,"Plant response rating, Ragweed",common ragweed; [1],0
same,"Plant response rating (0 = no effect, 100 = complete control), Ragweed","common ragweed; 125 g ai/ha, preemergence",0
same,"Plant response rating, Ragweed",common ragweed; [13],50
same,"Plant response rating, Ragweed",common ragweed; [14],50
same,Ducksalad plant response rating,"ducksalad; 62 g ai/ha, scale 0 to 100",25
same,Ducksalad plant response rating,ducksalad; [6],85
same,Ducksalad plant response rating,ducksalad; [7],85
same,"Plant response rating, Ducksalad",ducksalad; [8],85
same,"Plant response rating, Foxtail, Giant",giant foxtail; [1],10
same,"Plant response rating (0 = no effect, 100 = complete control), Foxtail, Giant","giant foxtail; 125 g ai/ha, preemergence",85
same,"Plant response rating, Foxtail, Giant",giant foxtail; [13],95
same,"Plant response rating, Foxtail, Giant",giant foxtail; [14],100
same,Barnyardgrass plant response rating,barnyardgrass; [5],45
same,Barnyardgrass plant response rating,barnyardgrass; [6],65
same,Barnyardgrass plant response rating,barnyardgrass; [7],70
same,"Plant response rating, Barnyardgrass",barnyardgrass; [8],75
same,"Plant response rating, Nutsedge, Yellow",yellow nutsedge; [1],5
same,"Plant response rating (0 = no effect, 100 = complete control), Nutsedge, Yellow","yellow nutsedge; 125 g ai/ha, preemergence",30
same,"Plant response rating, Nutsedge, Yellow",yellow nutsedge; [13],40
same,"Plant response rating, Nutsedge, Yellow",yellow nutsedge; [14],60
same,"Plant response rating, Velvetleaf",velvetleaf; [1],0
same,"Plant response rating (0 = no effect, 100 = complete control), Velvetleaf","velvetleaf; 125 g ai/ha, preemergence",5
same,"Plant response rating, Velvetleaf",velvetleaf; [14],50
same,"Plant response rating, Goosegrass",goosegrass; [1],80
same,"Plant response rating (0 = no effect, 100 = complete control), Goosegrass","goosegrass; 125 g ai/ha, preemergence",100
same,"Plant response rating, Goosegrass",goosegrass; [13],100
same,"Plant response rating, Goosegrass",goosegrass; [14],100
Cc1nn(C(C)(C)C)nc1C(=O)Nc1cccc(C(=O)N(C)C)c1 [Compound 391],"Plant response rating, Pigweed",pigweed; [1],95
same,"Plant response rating (0 = no effect, 100 = complete control), Pigweed","pigweed; 125 g ai/ha, preemergence",100
same,"Plant response rating, Pigweed",pigweed; [13],100
same,"Plant response rating, Pigweed",pigweed; [14],100
same,"Plant response rating, Crabgrass, Large",large crabgrass; [1],98
same,"Plant response rating (0 = no effect, 100 = complete control), Crabgrass, Large","large crabgrass; 125 g ai/ha, preemergence",100
same,"Plant response rating, Crabgrass, Large",large crabgrass; [13],100
same,"Plant response rating, Crabgrass, Large",large crabgrass; [14],100
same,"Plant response rating, Soybean",soybean; [1],95
same,"Plant response rating (0 = no effect, 100 = complete control), Soybean","soybean; 125 g ai/ha, preemergence",95
same,"Plant response rating, Soybean",soybean; [13],100
same,"Plant response rating, Soybean",soybean; [14],100
same,"Plant response rating, Ragweed",common ragweed; [1],85
same,"Plant response rating (0 = no effect, 100 = complete control), Ragweed","common ragweed; 125 g ai/ha, preemergence",100
same,"Plant response rating, Ragweed",common ragweed; [13],100
same,"Plant response rating, Ragweed",common ragweed; [14],100
same,Ducksalad plant response rating,"ducksalad; 62 g ai/ha, scale 0 to 100",85
same,Ducksalad plant response rating,ducksalad; [6],85
same,Ducksalad plant response rating,ducksalad; [7],85
same,"Plant response rating, Ducksalad",ducksalad; [8],95
same,"Plant response rating, Foxtail, Giant",giant foxtail; [1],85
same,"Plant response rating (0 = no effect, 100 = complete control), Foxtail, Giant","giant foxtail; 125 g ai/ha, preemergence",100
same,"Plant response rating, Foxtail, Giant",giant foxtail; [13],100
same,"Plant response rating, Foxtail, Giant",giant foxtail; [14],100
same,Barnyardgrass plant response rating,barnyardgrass; [5],55
same,Barnyardgrass plant response rating,barnyardgrass; [6],85
same,Barnyardgrass plant response rating,barnyardgrass; [7],90
same,"Plant response rating, Barnyardgrass",barnyardgrass; [8],95
same,"Plant response rating, Nutsedge, Yellow",yellow nutsedge; [1],5
same,"Plant response rating (0 = no effect, 100 = complete control), Nutsedge, Yellow","yellow nutsedge; 125 g ai/ha, preemergence",70
same,"Plant response rating, Nutsedge, Yellow",yellow nutsedge; [13],90
same,"Plant response rating, Nutsedge, Yellow",yellow nutsedge; [14],90
same,"Plant response rating, Velvetleaf",velvetleaf; [1],100
same,"Plant response rating (0 = no effect, 100 = complete control), Velvetleaf","velvetleaf; 125 g ai/ha, preemergence",100
same,"Plant response rating, Velvetleaf",velvetleaf; [13],100
same,"Plant response rating, Velvetleaf",velvetleaf; [14],100
same,"Plant response rating, Goosegrass",goosegrass; [1],80
same,"Plant response rating (0 = no effect, 100 = complete control), Goosegrass","goosegrass; 125 g ai/ha, preemergence",85
same,"Plant response rating, Goosegrass",goosegrass; [13],90
same,"Plant response rating, Goosegrass",goosegrass; [14],95
